Reference: patent US11390648B2, “Peptide” (HYSENSBIO, priority 2017, dated 2022)

test system: Dspp gene; experiment: Dspp mRNA level in human dental pulp cells treated with peptide (real-time PCR); assay type: cell-based; conditions: hDPCs, peptide 10 μg/ml, 48 hours; ratio relative to Dspp mRNA level of untreated control; GAPDH internal control; triplicate
Protocol: Human dental pulp cells were separated from wisdom teeth of adults (aged 18-22) at the School of Dentistry, Seoul National University. In detail, all experiments were performed after the approval of the Institutional Review Board and the informed consent from patients. Wisdom teeth were fractured according to a method of Jung HS et al. (J Mol Histol.(2011)) to expose the dental pulps, and dental pulp tissues were separated with forceps. Each of the separated dental pulp tissues was cut into small pieces with a razor blade, put in a 60-mm dish, covered with a coverslip, and then cultured in a Dulbecco's modified Eagle's medium. It has been known that human dental pulp cells can differentiate into odontoblast, osteoblast, cementoblast, and periodontal ligament cells under various conditions (Tissue Eng Part A. 2014 April; 20 (7-8): 1342-51).
Total RNA was extracted from human dental pulp cells (hDPCs), and human bone marrow mesenchymal stem cells (hBMSCs) with TRIzol reagent. 2 μg of the total RNA, 1 μl of reverse transcriptase, and 0.5 μg of oligo (oligo; dT) were used to synthesize cDNA. The synthesized cDNA was used in a real-time polymerase chain reaction. The real-time polymerase chain reaction was performed on an ABI PRISM 7500 sequence detection system (Applied Biosystems) and an SYBR GREEN PCR Master Mix (Takara, Japan). The real-time polymerase chain reaction was performed under conditions of 94° C., 1 min; 95° C., 15 sec; 60° C., 34 sec for 40 cycles. Results were analyzed by a comparative cycle threshold (CT) method. And the used primers are as follows (Table 17).
The human dental pulp cells (hDPCs) cultured in Example 3 were treated with the peptides (concentration of 10 μg/ml) of each group synthesized in Example 1-1, and cultured for 48 hours. Then, mRNA levels of an odontoblast differentiation marker Dspp gene expressed in the human dental pulp cells were measured, and a ratio of the measured Dspp mRNA level relative to a Dspp mRNA level measured in a control group was calculated, respectively (Tables 18 to 33).
The expression level of the Dspp gene was measured through RT-PCR and real-time PCR analysis described in Example 1-4. In this regard, GAPDH gene was used as an internal control. The experiments were performed in triplicate, and then mean values and standard deviations thereof were taken as measured values. The base sequence of the primers is described in Table 17 above.

Row | Substance | mRNA level of Dspp gene, Mean
1 | 66 (KYNRRKR; Novel peptide) [compound 66] | 2.072
2 | 67 (KYNRRRK; Novel peptide) [compound 67] | 2.452
3 | 68 (KYNRRRR; Novel peptide) [compound 68] | 2.343
4 | 69 (KYNRKKK; Novel peptide) [compound 69] | 1.899
5 | 70 (KYNRKRK; Novel peptide) [compound 70] | 1.947
6 | 71 (KYNRKKR; Novel peptide) [compound 71] | 2.052
7 | 72 (KYNRKRR; Novel peptide) [compound 72] | 1.739
8 | 73 (KYRNRKK; Novel peptide) [compound 73] | 2.208
9 | 74 (KYRNRKR; Novel peptide) [compound 74] | 2.105
10 | 75 (KYRNRRK; Novel peptide) [compound 75] | 2.624
11 | 76 (KYRNRRR; Novel peptide) [compound 76] | 2.394
12 | 77 (KYRNKKK; Novel peptide) [compound 77] | 1.939
13 | 78 (KYRNKRK; Novel peptide) [compound 78] | 2.109
14 | 79 (KYRNKKR; Novel peptide) [compound 79] | 2.403
15 | 80 (KYRNKRR; Novel peptide) [compound 80] | 2.636
16 | 81 (KYKNRKK; Novel peptide) [compound 81] | 1.757
17 | 82 (KYKNRKR; Novel peptide) [compound 82] | 1.909
18 | 83 (KYKNRRK; Novel peptide) [compound 83] | 2.001
19 | 84 (KYKNRRR; Novel peptide) [compound 84] | 2.101
20 | 85 (KYKNKKK; Novel peptide) [compound 85] | 1.838
21 | 86 (KYKNKRK; Novel peptide) [compound 86] | 1.736

Row | Substance | mRNA level of Dspp gene, Mean
22 | 87 (KYKNKKR; Novel peptide) [compound 87] | 1.888
23 | 88 (KYKNKRR; Novel peptide) [compound 88] | 1.539
24 | 89 (KYQNRKK; Novel peptide) [compound 89] | 1.635
25 | 90 (KYQNRKR; Novel peptide) [compound 90] | 1.797
26 | 91 (KYQNRRK; Novel peptide) [compound 91] | 1.913
27 | 92 (KYQNRRR; Novel peptide) [compound 92] | 1.498
28 | 93 (KYQNKKK; Novel peptide) [compound 93] | 1.892
29 | 94 (KYQNKRK; Novel peptide) [compound 94] | 1.487
30 | 95 (KYQNKKR; Novel peptide) [compound 95] | 1.939
31 | 96 (KYQNKRR; Novel peptide) [compound 96] | 2.011
32 | 97 (KYNQRKK; Novel peptide) [compound 97] | 1.515
33 | 98 (KYNQRKR; Novel peptide) [compound 98] | 1.479
34 | 99 (KYNQRRK; Novel peptide) [compound 99] | 1.737
35 | 100 (KYNQRRR; Novel peptide) [compound 100] | 1.599
36 | 101 (KYNQKKK; Novel peptide) [compound 101] | 1.674
37 | 102 (KYNQKRK; Novel peptide) [compound 102] | 1.855
38 | 103 (KYNQKKR; Novel peptide) [compound 103] | 1.737
39 | 104 (KYNQKRR; Novel peptide) [compound 104] | 1.878
40 | 105 (KYNNRKK; Novel peptide) [compound 105] | 1.664
41 | 106 (KYNNRKR; Novel peptide) [compound 106] | 1.673
42 | 107 (KYNNRRK; Novel peptide) [compound 107] | 1.935

Row | Substance | mRNA level of Dspp gene, Mean
43 | 108 (KYNNRRR; Novel peptide) [compound 108] | 1.495
44 | 109 (KYNNKKK; Novel peptide) [compound 109] | 1.756
45 | 110 (KYNNKRK; Novel peptide) [compound 110] | 1.595
46 | 111 (KYNNKKR; Novel peptide) [compound 111] | 1.918
47 | 112 (KYNNKRR; Novel peptide) [compound 112] | 1.699
48 | 113 (KYRKRKK; Novel peptide) [compound 113] | 1.778
49 | 114 (KYRKRKR; Novel peptide) [compound 114] | 1.849
50 | 115 (KYRKRRK; Novel peptide) [compound 115] | 1.707
51 | 116 (KYRKRRR; Novel peptide) [compound 116] | 1.693
52 | 117 (KYRKKKK; Novel peptide) [compound 117] | 1.929
53 | 118 (KYRKKRK; Novel peptide) [compound 118] | 2.015
54 | 119 (KYRNKKR; Novel peptide) [compound 119] | 2.121
55 | 120 (KYRNKRR; Novel peptide) [compound 120] | 1.878
56 | 121 (KYKKRKK; Novel peptide) [compound 121] | 2.024
57 | 122 (KYKKRKR; Novel peptide) [compound 122] | 1.979
58 | 123 (KYKKRRK; Novel peptide) [compound 123] | 1.837
59 | 124 (KYKKRRR; Novel peptide) [compound 124] | 2.017
60 | 125 (KYKKKKK; Novel peptide) [compound 125] | 2.082
61 | 126 (KYKKKRK; Novel peptide) [compound 126] | 1.798
62 | 127 (KYKKKKR; Novel peptide) [compound 127] | 1.888
63 | 128 (KYKKKRR; Novel peptide) [compound 128] | 1.765
